From the NIST ThermoML archive (doi:10.1016/j.fluid.2011.09.020)
± gives the expanded uncertainty stated by the source.

Conditions: Liquid, Ebulliometric method (Recirculating still)

O=C(O)C(Cl)Cl [2,2-dichloroacetic acid]
Conditions | vapor or sublimation pressure [kPa]
384.3 K | 5 ± 0.1
388.3 K | 6 ± 0.1
391.8 K | 7 ± 0.1
394.8 K | 8 ± 0.1
397.6 K | 9 ± 0.1
400.2 K | 10 ± 0.1
402.4 K | 11 ± 0.1
404.3 K | 12 ± 0.1
406.4 K | 13 ± 0.1
408.3 K | 14 ± 0.1
410.1 K | 15 ± 0.1
414.1 K | 17.5 ± 0.1
417.5 K | 20 ± 0.1
423.5 K | 25 ± 0.1
428.6 K | 30 ± 0.1
437 K | 40 ± 0.1

O=C(O)CCl [chloroethanoic acid]
Conditions | vapor or sublimation pressure [kPa]
380.7 K | 5 ± 0.1
384.7 K | 6 ± 0.1
389.5 K | 7.5 ± 0.1
391 K | 8 ± 0.1
393.8 K | 9 ± 0.1
396.3 K | 10 ± 0.1
398.7 K | 11 ± 0.1
400.7 K | 12 ± 0.1
402.7 K | 13 ± 0.1
404.6 K | 14 ± 0.1
406.3 K | 15 ± 0.1
410.2 K | 17.5 ± 0.1
413.7 K | 20 ± 0.1
419.5 K | 25 ± 0.1
424.5 K | 30 ± 0.1
432.6 K | 40 ± 0.1
